We go through 1 compound from article PMC3274524, “In Vitro Pharmacological Characterization of RXFP3 Allosterism: An Example of Probe Dependency” (PLoS ONE, 2012).

In experiment [1] the target is T1, RXFP3 (relaxin-3 receptor; GPCR135; SALPR) (Homo sapiens, UniProt Q9NSD7).
T1 construct: cloned human RXFP3 receptor, stably expressed in HEK-293 cells with GqI5; with Relaxin-3NH2 (amidated orthosteric agonist; also R3/I5NH2)
T1 sequence (Q9NSD7 1-469): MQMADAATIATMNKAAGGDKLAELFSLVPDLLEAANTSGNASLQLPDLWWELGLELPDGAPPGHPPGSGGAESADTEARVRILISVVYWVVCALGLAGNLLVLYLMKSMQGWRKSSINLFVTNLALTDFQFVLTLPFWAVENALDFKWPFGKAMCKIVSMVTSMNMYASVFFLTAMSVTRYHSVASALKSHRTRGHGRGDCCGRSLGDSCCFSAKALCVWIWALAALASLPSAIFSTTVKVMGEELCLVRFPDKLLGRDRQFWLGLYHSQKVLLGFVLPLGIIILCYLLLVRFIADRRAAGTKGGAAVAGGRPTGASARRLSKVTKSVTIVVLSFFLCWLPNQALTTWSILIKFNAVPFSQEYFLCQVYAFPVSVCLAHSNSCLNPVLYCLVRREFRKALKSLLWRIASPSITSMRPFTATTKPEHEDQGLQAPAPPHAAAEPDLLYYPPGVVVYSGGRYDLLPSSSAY
Kind of experiment: Ca2+ mobilization (FLIPR) agonist curve shift, allosteric ternary complex model; also increased […]R3/I5NH2 binding in membranes. The experiment is classed as cell-based. (Calcium assays in cells follow changes in intracellular calcium, usually with a dye or a luminescent sensor.)

Experiment [2] concerns the target T2, norepinephrine transporter (Homo sapiens, UniProt P23975).
T2 construct: gene SLC6A2
Kind of experiment: radioligand binding selectivity panel (CEREP/in house), single concentration.

Another experiment deals with T3, dopamine transporter (Homo sapiens, UniProt Q01959).
T3 construct: gene SLC6A3
T3 sequence (Q01959 whole entry): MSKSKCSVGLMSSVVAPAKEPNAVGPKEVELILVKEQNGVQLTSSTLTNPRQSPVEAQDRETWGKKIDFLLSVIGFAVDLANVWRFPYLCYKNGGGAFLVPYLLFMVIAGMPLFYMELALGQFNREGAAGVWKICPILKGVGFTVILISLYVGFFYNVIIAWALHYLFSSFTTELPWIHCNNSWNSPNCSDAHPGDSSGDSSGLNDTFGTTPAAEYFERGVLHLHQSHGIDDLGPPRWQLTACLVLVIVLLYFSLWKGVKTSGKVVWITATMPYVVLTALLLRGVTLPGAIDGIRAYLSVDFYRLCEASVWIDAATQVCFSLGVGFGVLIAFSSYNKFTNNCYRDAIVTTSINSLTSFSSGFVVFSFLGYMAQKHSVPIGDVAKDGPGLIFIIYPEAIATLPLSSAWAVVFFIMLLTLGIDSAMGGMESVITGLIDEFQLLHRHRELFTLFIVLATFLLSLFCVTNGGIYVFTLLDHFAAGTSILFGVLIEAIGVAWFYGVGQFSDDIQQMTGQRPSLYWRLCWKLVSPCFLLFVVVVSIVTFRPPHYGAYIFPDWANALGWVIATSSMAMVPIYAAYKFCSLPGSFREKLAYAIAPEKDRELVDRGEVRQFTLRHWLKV
Described as above.

Another experiment addresses T4, serotonin 5-HT1A (Homo sapiens, UniProt P08908).
T4 construct: gene HTR1A
T4 sequence (P08908 1-422): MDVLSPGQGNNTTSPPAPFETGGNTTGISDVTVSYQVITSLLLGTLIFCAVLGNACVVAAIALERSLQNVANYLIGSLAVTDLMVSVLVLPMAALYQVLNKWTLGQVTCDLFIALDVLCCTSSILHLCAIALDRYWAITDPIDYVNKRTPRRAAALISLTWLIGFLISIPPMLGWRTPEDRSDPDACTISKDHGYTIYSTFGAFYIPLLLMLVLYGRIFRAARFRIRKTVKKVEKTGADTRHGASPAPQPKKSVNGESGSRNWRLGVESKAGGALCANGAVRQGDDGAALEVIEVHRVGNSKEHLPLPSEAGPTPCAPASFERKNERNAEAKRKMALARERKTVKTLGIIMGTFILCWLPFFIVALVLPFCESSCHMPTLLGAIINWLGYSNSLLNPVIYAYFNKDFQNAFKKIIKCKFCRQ
The experiment is described as above.

T2 sequence (P23975 whole entry): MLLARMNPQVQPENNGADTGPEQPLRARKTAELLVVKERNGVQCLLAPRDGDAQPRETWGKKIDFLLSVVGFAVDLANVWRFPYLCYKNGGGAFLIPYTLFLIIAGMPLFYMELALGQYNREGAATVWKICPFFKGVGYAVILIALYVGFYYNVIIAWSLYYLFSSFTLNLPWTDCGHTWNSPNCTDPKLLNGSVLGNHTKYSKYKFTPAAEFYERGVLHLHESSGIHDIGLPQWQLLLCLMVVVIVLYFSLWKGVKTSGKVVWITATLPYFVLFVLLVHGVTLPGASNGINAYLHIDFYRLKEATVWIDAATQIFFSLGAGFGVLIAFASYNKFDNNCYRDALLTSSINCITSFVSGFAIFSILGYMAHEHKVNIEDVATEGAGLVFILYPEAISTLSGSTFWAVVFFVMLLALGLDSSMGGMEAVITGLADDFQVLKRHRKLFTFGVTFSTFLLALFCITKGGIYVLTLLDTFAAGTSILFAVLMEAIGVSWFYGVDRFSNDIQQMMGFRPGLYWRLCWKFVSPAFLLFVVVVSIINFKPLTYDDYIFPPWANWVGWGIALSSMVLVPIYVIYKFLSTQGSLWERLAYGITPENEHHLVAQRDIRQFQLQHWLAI

As for `COc1ccc2[nH]cc(CCN(Cc3ccc(Cl)c(Cl)c3)C(=O)Nc3cc(C(F)(F)F)cc(C(F)(F)F)c3)c2c1` [135PAM1, 3-[3,5-Bis(trifluoromethyl)phenyl]-1-(3,4-dichlorobenzyl)-1-[2-(5-methoxy-1H-indol-3-yl)ethyl]urea], the Kb in experiment [1] was 355 nM. Also, the inhibition – broadly, the relative decrease from the control value, in per cent – at 10 µM turned out to be 59% in experiment [2], 83% on dopamine transporter and 74% at serotonin 5-HT1A.
